From patent US20250073255A1, “USE OF FA-TYPE LIPID COMPOUNDS IN PREPARATION OF NUCLEIC ACID DELIVERY REAGENT AND RELATED PRODUCT” (BEIJING BAISHIKANG PHARMACEUTICAL TECHNOLOGY (BSJPHARMA) …, priority 2021, published 2025) come the findings set out here.

This test has as its system C57BL/6 male mice. In words: In vivo delivery study of lipid nucleic acid mixture (oral gavage, RT-qPCR of PGY-sRNA-26 in tissues). The conditions noted are these: for oral delivery of single-stranded sRNA nucleic acids into mouse blood / oral delivery of single-stranded sRNA nucleic acids into mouse brain tissue / oral delivery of single-stranded sRNA nucleic acids into mouse femur / oral delivery of single-stranded sRNA nucleic acids into mouse heart tissue / oral delivery of single-stranded sRNA nucleic acids into mouse intestinal tissue / oral delivery of single-stranded sRNA nucleic acids into mouse kidney tissue / oral delivery of single-stranded sRNA nucleic acids into mouse liver tissue / oral delivery of single-stranded sRNA nucleic acids into mouse lung tissue / oral delivery of single-stranded sRNA nucleic acids into mouse pancreatic tissue / oral delivery of single-stranded sRNA nucleic acids into mouse spleen tissue / oral delivery of single-stranded sRNA nucleic acids into mouse stomach tissue: 100 μg lipid:10 nmol PGY-sRNA-26, sampled after 12 hours; for oral delivery of single-stranded sRNA nucleic acids into mouse heart tissue: vs free uptake group; for oral delivery of single-stranded sRNA nucleic acids into mouse intestinal tissue: intestine; for oral delivery of single-stranded sRNA nucleic acids into mouse pancreatic tissue: pancreas; for overall delivery efficacy: delivering nucleic acids into each tissue and blood tested: 100 μg lipid:10 nmol PGY-sRNA-26, all tissues and blood tested. Further details: species or system mouse. The protocol:
10 nmol of small RNA (as shown in Table 2) was dissolved in 400 μl of DEPC-treated water in a glass tube, 10 μl of the corresponding lipid stock solution was added such that the lipid mass in the system was 100 μg. The mixture was mixed thoroughly, heated in a 90° C. water bath for 15 minutes, and then cooled naturally to obtain the lipid nucleic acid mixture of lipid and small RNA.
C57BL/6 male mice, approximately 6 weeks old, weighing […], were obtained from Beijing Vital River Laboratory Animal Technology Co., Ltd. The mice were housed in the SPF-grade animal facility at the Animal Center of the Institute of Basic Medical Sciences, Chinese Academy of Medical Sciences. The mice were fasted for 12 hours before gavage administration.
The lipid nucleic acid mixture was prepared following the method described in Example 2. The resultant lipid nucleic acid mixture was orally administered to each mouse at a dose of 100 μg lipid:10 nmol single-stranded 3-methylated small RNA PGY-sRNA-26.
• 1) Blank group (n=4): mice were administered with 500 μl saline by gavage, this group served as a blank control; • 2) Free uptake group (n=4): mice were directly administered with small RNA PGY-sRNA-26 solution (10 nmol/mouse, 500 l) by gavage, this group served as a negative control; • 3) Lipid-treated group (n=4): mice were administered with 500 μl lipid nucleic acid mixture prepared in step 2 by gavage.
After 12 hours of gavage administration, 500 μl blood from the eyeball of each mouse was sampled, added to 1.5 ml Trizol Reagent LS (purchased from Invitrogen), thoroughly mixed for lysis. 3 ml of Trizol Reagent LSwas added to tissue samples and homogenized for complete lysis, wherein the sampled tissues include heart, liver, spleen, lung, kidney, stomach, intestine, brain, blood, femur, pancreas. RNAwas extracted from 1 ml of the blood or the tissue lysate following the steps below: • Centrifuge at 4° C., 12,000 rpm for 5 min, discard the precipitate, transfer Trizol to a new centrifuge tube; • Add chloroform at 200 μL chloroform/mL Trizol, shake well, stand at room temperature for 5 min; • Centrifuge at 4° C., 12,000 rpm for 15 min; • Take the upper aqueous phase to another centrifuge tube, add isopropanol at 0.4 mL isopropanol/mL Trizol, mix well, and stand at low temperature for 10-20 min; • Centrifuge at 4° C., 12,000 rpm for 15 min, discard the supernatant, RNA precipitated at the bottom of the tube; • Add 1 mL of 75% ethanol, gently shake the centrifuge tube, suspend the precipitate; • Centrifuge at 4° C., 12,000 rpm for 15 min, discard the supernatant, add 1 mL of 75% ethanol, gently shake the centrifuge tube, suspend the precipitate; • Centrifuge at 4° C., 12,000 rpm for 15 min, discard the supernatant, air-dry at room temperature, dissolve RNA samples in 50 μL RNase-free H2O, measure OD value to quantify RNA concentration. 3.3 Reverse Transcription of sRNA to cDNA:
sRNA was reverse transcribed to cDNA using the High-Capacity cDNA Reverse Transcription Kit (Applied Biosystems, cat. no. 4368813) by stem-loop method (see, e.g., “Real-time quantification of microRNAs by stem-loop RT-PCR, Nucleic Acids Res. 2005 Nov. 27; 33(20):e179”, incorporated herein by reference). The reverse transcription system is as follows: Template RNA (200 ng/μL) 10 μL, 10×RT Buffer 2.0 μL, 25×dNTP Mix (100 mM) 0.8 μL, U6 RT stem-loop primer (10 μM) 2.0 μL, PGY-sRNA-26 RT stem-loop primer (10 μM) 2.0 μL, MultiScribe™ Reverse Transcriptase (50 U/μL) 1.0 μL, RNAse Inhibitor (40 U/μL) 1.0 μL, nuclease-free H2O 1.2 μL. After transient centrifugation, the reverse transcription system was placed in a PCR machine with the following reaction conditions: (1) 25° C., 10 min; (2) 37° C., 120 min; (3) 85° C., 5 min; (4) 4° C., stop reaction. After the reaction, add 20 μL RNAse-free ddH2O, adjust the final volume to 40 μL. […]
In general terms: Quantitative PCR measures a nucleic acid by following its amplification.

Consider `CCCCC/C=C\C/C=C\C/C=C\C/C=C\CCCC(=O)NCCCCCO` [Lipid 807, (5Z,8Z,11Z,14Z)-N-(5-hydroxypentyl)icosa-5,8,11,14-tetraenamide], for which the “oral delivery of single-stranded sRNA nucleic acids into mouse blood” value is reported as “can effectively orally deliver”, the “oral delivery of single-stranded sRNA nucleic acids into mouse brain tissue” value is “can effectively orally deliver”, the “oral delivery of single-stranded sRNA nucleic acids into mouse femur” value was “can effectively orally deliver” and the “oral delivery of single-stranded sRNA nucleic acids into mouse heart tissue” value is “can effectively orally deliver”. The “oral delivery of single-stranded sRNA nucleic acids into mouse intestinal tissue” value is reported as “can effectively orally deliver”, the “oral delivery of single-stranded sRNA nucleic acids into mouse kidney tissue” value is “can effectively orally deliver”, the “oral delivery of single-stranded sRNA nucleic acids into mouse liver tissue” value is given as “can effectively orally deliver” and the “oral delivery of single-stranded sRNA nucleic acids into mouse lung tissue” value is on record as “can effectively orally deliver”. Besides, the “oral delivery of single-stranded sRNA nucleic acids into mouse pancreatic tissue” value is listed as “can effectively orally deliver”, the “oral delivery of single-stranded sRNA nucleic acids into mouse spleen tissue” value was “can effectively orally deliver” and the “oral delivery of single-stranded sRNA nucleic acids into mouse stomach tissue” value is reported as “can effectively orally deliver”.
As to `O=C(O)C[C@H]1CCC(=O)[C@@H]1C/C=C\CCO` [Lipid 543], the “overall delivery efficacy: delivering nucleic acids into each tissue and blood tested” value is recorded as “best delivery efficacy”; the “oral delivery of single-stranded sRNA nucleic acids into mouse blood” value is “can effectively orally deliver”; the “oral delivery of single-stranded sRNA nucleic acids into mouse brain tissue” value is on record as “can effectively orally deliver”; the “oral delivery of single-stranded sRNA nucleic acids into mouse femur” value was “can effectively orally deliver”. Further, the “oral delivery of single-stranded sRNA nucleic acids into mouse heart tissue” value is “can effectively orally deliver”, the “oral delivery of single-stranded sRNA nucleic acids into mouse intestinal tissue” value is “can effectively orally deliver”, the “oral delivery of single-stranded sRNA nucleic acids into mouse kidney tissue” value is “can effectively orally deliver” and the “oral delivery of single-stranded sRNA nucleic acids into mouse liver tissue” value is given as “can effectively orally deliver”. For the same compound, the “oral delivery of single-stranded sRNA nucleic acids into mouse lung tissue” value is on record as “can effectively orally deliver”, the “oral delivery of single-stranded sRNA nucleic acids into mouse spleen tissue” value was “can effectively orally deliver” and the “oral delivery of single-stranded sRNA nucleic acids into mouse stomach tissue” value is given as “can effectively orally deliver”.
Consider `CCCCCCCCCCCCCCCO` [Lipid 609, pentadecan-1-ol], for which the “oral delivery of single-stranded sRNA nucleic acids into mouse brain tissue” value was “can effectively orally deliver”, the “oral delivery of single-stranded sRNA nucleic acids into mouse femur” value is “can effectively orally deliver”, the “oral delivery of single-stranded sRNA nucleic acids into mouse heart tissue” value is listed as “can effectively orally deliver” and the “oral delivery of single-stranded sRNA nucleic acids into mouse kidney tissue” value was “can effectively orally deliver”. The “oral delivery of single-stranded sRNA nucleic acids into mouse liver tissue” value was “can effectively orally deliver”, the “oral delivery of single-stranded sRNA nucleic acids into mouse lung tissue” value is given as “can effectively orally deliver” and the “oral delivery of single-stranded sRNA nucleic acids into mouse stomach tissue” value is listed as “can effectively orally deliver”.
As for `CCCCC/C=C\C/C=C\CCCCCCCC(=O)OCCCCCCCCCCCCCC` [Lipid 811, tetradecyl (9Z,12Z)-octadeca-9,12-dienoate], the “oral delivery of single-stranded sRNA nucleic acids into mouse blood” value is recorded as “can effectively orally deliver”, the “oral delivery of single-stranded sRNA nucleic acids into mouse brain tissue” value was “can effectively orally deliver”, the “oral delivery of single-stranded sRNA nucleic acids into mouse femur” value is given as “can effectively orally deliver” and the “oral delivery of single-stranded sRNA nucleic acids into mouse heart tissue” value is on record as “can effectively orally deliver”. Further, the “oral delivery of single-stranded sRNA nucleic acids into mouse intestinal tissue” value was “can effectively orally deliver”, the “oral delivery of single-stranded sRNA nucleic acids into mouse kidney tissue” value is “can effectively orally deliver”, the “oral delivery of single-stranded sRNA nucleic acids into mouse liver tissue” value was “can effectively orally deliver” and the “oral delivery of single-stranded sRNA nucleic acids into mouse lung tissue” value is on record as “can effectively orally deliver”. Moreover, the “oral delivery of single-stranded sRNA nucleic acids into mouse pancreatic tissue” value is “can effectively orally deliver”, the “oral delivery of single-stranded sRNA nucleic acids into mouse spleen tissue” value is given as “can effectively orally deliver” and the “oral delivery of single-stranded sRNA nucleic acids into mouse stomach tissue” value was “can effectively orally deliver”.
On to `N[C@H](CCCC(=O)O)C(=O)O` [Lipid 625, (2R)-2-aminohexanedioic acid], for which the “overall delivery efficacy: delivering nucleic acids into each tissue and blood tested” value is “best delivery efficacy”; the “oral delivery of single-stranded sRNA nucleic acids into mouse blood” value is given as “can effectively orally deliver”; the “oral delivery of single-stranded sRNA nucleic acids into mouse brain tissue” value is reported as “can effectively orally deliver”; the “oral delivery of single-stranded sRNA nucleic acids into mouse femur” value is recorded as “can effectively orally deliver”. Moreover, the “oral delivery of single-stranded sRNA nucleic acids into mouse heart tissue” value was “can effectively orally deliver”, the “oral delivery of single-stranded sRNA nucleic acids into mouse intestinal tissue” value is recorded as “can effectively orally deliver”, the “oral delivery of single-stranded sRNA nucleic acids into mouse kidney tissue” value was “can effectively orally deliver” and the “oral delivery of single-stranded sRNA nucleic acids into mouse liver tissue” value is “can effectively orally deliver”. The “oral delivery of single-stranded sRNA nucleic acids into mouse lung tissue” value is given as “can effectively orally deliver”, the “oral delivery of single-stranded sRNA nucleic acids into mouse spleen tissue” value is “can effectively orally deliver” and the “oral delivery of single-stranded sRNA nucleic acids into mouse stomach tissue” value was “can effectively orally deliver”.
Take `CCCCCC/C=C\CCCCCCCC(=O)OCCCCCCCCCCCCC` [Lipid 813, tridecyl (Z)-hexadec-9-enoate]: the “oral delivery of single-stranded sRNA nucleic acids into mouse blood” value is on record as “can effectively orally deliver”, the “oral delivery of single-stranded sRNA nucleic acids into mouse brain tissue” value is listed as “can effectively orally deliver”, the “oral delivery of single-stranded sRNA nucleic acids into mouse femur” value was “can effectively orally deliver” and the “oral delivery of single-stranded sRNA nucleic acids into mouse heart tissue” value is on record as “can effectively orally deliver”. Besides, the “oral delivery of single-stranded sRNA nucleic acids into mouse intestinal tissue” value is listed as “can effectively orally deliver”, the “oral delivery of single-stranded sRNA nucleic acids into mouse kidney tissue” value is reported as “can effectively orally deliver”, the “oral delivery of single-stranded sRNA nucleic acids into mouse liver tissue” value is reported as “can effectively orally deliver” and the “oral delivery of single-stranded sRNA nucleic acids into mouse lung tissue” value is given as “can effectively orally deliver”. In addition, the “oral delivery of single-stranded sRNA nucleic acids into mouse pancreatic tissue” value is on record as “can effectively orally deliver”, the “oral delivery of single-stranded sRNA nucleic acids into mouse spleen tissue” value was “can effectively orally deliver” and the “oral delivery of single-stranded sRNA nucleic acids into mouse stomach tissue” value was “can effectively orally deliver”.
